Test results reported in patent publication US6518243B1, “Desleucyl glycopeptide antibiotics and methods of making same” (Trustees of Princeton University, priority 1999, dated 2003).

What was measured:
[1] = test system: S. epidermidis (ATCC 12228); experiment: Zone of inhibition screen, 96 well agar array format; format: cell-based; parameters: scale not given here; conditions: zone of inhibition relative to 1 mg/ml stock solution of p-chlorobiphenylvancomycin
Summary of the method: (§1)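 Read-out is antibacterial activity on agar laid out as a 96-well array; every compound went through all strains of the panel.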

E. faecalis (CL 4877) = experiment: as above; format: cell-based; parameters: scale not given here; conditions: zone of inhibition relative to 1 mg/ml stock solution of p-chlorobiphenylvancomycin
Summary of the method: as §1

E. faceium (ATCC 49624) = experiment: as above; format: cell-based, E. faecium; conditions: zone of inhibition relative to 1 mg/ml stock solution of p-chlorobiphenylvancomycin;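 further: score 3 means fourfold and score 4 sixteenfold the reference zone size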
Procedure: The antibacterial activity of each of the compounds against the bacterial strains E. faceium (ATCC 49624), S. epidermidis (ATCC 12228), S. aureus (ATCC 29213), E. faecalis (CL 4877) and E. faecalis (ATCC 292121) was tested. Each of the compounds was screened in a 96 will agar array format.

S. aureus (ATCC 29213) = experiment: as above; format: cell-based; parameters: scale not given here; conditions: zone of inhibition relative to 1 mg/ml stock solution of p-chlorobiphenylvancomycin
Summary of the method: as §1

E. faecium ATCC 49624 = experiment: MIC determination in BHI media, OD600; format: cell-based; conditions: BHI + 0.1% casamino acids, 18 hours at 37° C., ≧90% OD600 inhibition
Procedure: (§2) Logarithmically growing cells were diluted to approximately 5×10^5 CFU/ml and subjected to test compounds solubilized and serially diluted in DMSO. […] After 18 hours at 37° C., the OD600 was determined by reading the ninety-six well microtiter plates on a microplate reader. For a given concentration, an MIC determination was made if: […]

S aureus ATCC 29213 = experiment: MIC determination in BHI media, OD600; format: cell-based; conditions: BHI + 0.1% casamino acids, 18 hours at 37° C., ≧90% OD600 inhibition
Procedure: as §2

S. Aureus ATCC 33591 = experiment: MIC determination in BHI media, OD600; format: cell-based; conditions: BHI + 0.1% casamino acids, 18 hours at 37° C., ≧90% OD600 inhibition
Procedure: as §2

SMILES	zone score, S. epidermidis ATCC 12228 [1]	zone score, E. faecalis CL 4877 (E. faecalis (CL 4877))	zone score, E. faecium ATCC 49624 (E. faceium (ATCC 49624))	zone score, S. aureus ATCC 29213 (S. aureus (ATCC 29213))	MIC E. faecium ATCC 49624 (E. faecium ATCC 49624) [µg/mL]	MIC S. aureus ATCC 29213 (S aureus ATCC 29213) [µg/mL]	MIC S. aureus ATCC 33591 (S. Aureus ATCC 33591) [µg/mL]
CC1OC(OC2C(Oc3c4cc5cc3Oc3ccc(cc3Cl)C(O)C3NC(=O)C(NC(=O)C5NC(=O)C(CC(N)=O)NC(=O)C(NC(=O)CC(O)C[N+](C)(C)C)C(O)c5ccc(c(Cl)c5)O4)c4ccc(O)c(c4)-c4c(O)cc(O)cc4C(C(=O)O)NC3=O)OC(CO)C(O)C2O)CC(C)(NCc2ccc(-c3ccc(Cl)cc3)cc2)C1O (mixture of isomers) [Compound 151]	2	2	2				
CC1OC(OC2C(Oc3c4cc5cc3Oc3ccc(cc3Cl)C(O)C3NC(=O)C(NC(=O)C5NC(=O)C(CC(N)=O)NC(=O)C(NC(=O)C(N)Cc5cccs5)C(O)c5ccc(c(Cl)c5)O4)c4ccc(O)c(c4)-c4c(O)cc(O)cc4C(C(=O)O)NC3=O)OC(CO)C(O)C2O)CC(C)(NCc2ccc(-c3ccc(Cl)cc3)cc2)C1O (stereo not drawn) [Compound 10]			2	2			
CC1OC(OC2C(Oc3c4cc5cc3Oc3ccc(cc3Cl)C(O)C3NC(=O)C(NC(=O)C5NC(=O)C(CC(N)=O)NC(=O)C(NC(=O)Cn5cccc(N)c5=O)C(O)c5ccc(c(Cl)c5)O4)c4ccc(O)c(c4)-c4c(O)cc(O)cc4C(C(=O)O)NC3=O)OC(CO)C(O)C2O)CC(C)(NCc2ccc(-c3ccc(Cl)cc3)cc2)C1O (stereo not drawn) [Compound 32]		2	2	2			
CC1OC(OC2C(Oc3c4cc5cc3Oc3ccc(cc3Cl)C(O)C3NC(=O)C(NC(=O)C5NC(=O)C(CC(N)=O)NC(=O)C(NC(=O)CN5CCN(CCN)CC5)C(O)c5ccc(c(Cl)c5)O4)c4ccc(O)c(c4)-c4c(O)cc(O)cc4C(C(=O)O)NC3=O)OC(CO)C(O)C2O)CC(C)(NCc2ccc(-c3ccc(Cl)cc3)cc2)C1O (stereo not drawn) [Compound 33]		2	2	2			
CC(C)CC(N)C(=O)NC1C(=O)NC(CC(N)=O)C(=O)NC2C(=O)NC3C(=O)NC(C(=O)NC(C(=O)O)c4cc(O)cc(O)c4-c4cc3ccc4O)C(O)c3ccc(c(Cl)c3)Oc3cc2cc(c3OC2OC(CO)C(O)C(O)C2OC2CC(C)(NCc3ccc(-c4ccc(Cl)cc4)cc3)C(O)C(C)O2)Oc2ccc(cc2Cl)C1O (stereo not drawn) [Compound 38]			2	2	0.78	0.78	0.78
CC1OC(OC2C(Oc3c4cc5cc3Oc3ccc(cc3Cl)C(O)C3NC(=O)C(NC(=O)C5NC(=O)C(CC(N)=O)NC(=O)C(NC(=O)CNC(=O)CN)C(O)c5ccc(c(Cl)c5)O4)c4ccc(O)c(c4)-c4c(O)cc(O)cc4C(C(=O)O)NC3=O)OC(CO)C(O)C2O)CC(C)(NCc2ccc(-c3ccc(Cl)cc3)cc2)C1O (stereo not drawn) [Compound 68]			2		0.39	0.78	0.78
CC1OC(OC2C(Oc3c4cc5cc3Oc3ccc(cc3Cl)C(O)C3NC(=O)C(NC(=O)C5NC(=O)C(CC(N)=O)NC(=O)C(NC(=O)C5CC(O)CN5)C(O)c5ccc(c(Cl)c5)O4)c4ccc(O)c(c4)-c4c(O)cc(O)cc4C(C(=O)O)NC3=O)OC(CO)C(O)C2O)CC(C)(NCc2ccc(-c3ccc(Cl)cc3)cc2)C1O (stereo not drawn) [Compound 72]	2	2	2				
CC(=O)NCCCCC(N)C(=O)NC1C(=O)NC(CC(N)=O)C(=O)NC2C(=O)NC3C(=O)NC(C(=O)NC(C(=O)O)c4cc(O)cc(O)c4-c4cc3ccc4O)C(O)c3ccc(c(Cl)c3)Oc3cc2cc(c3OC2OC(CO)C(O)C(O)C2OC2CC(C)(NCc3ccc(-c4ccc(Cl)cc4)cc3)C(O)C(C)O2)Oc2ccc(cc2Cl)C1O (stereo not drawn) [Compound 76]	2		2				
CC1OC(OC2C(Oc3c4cc5cc3Oc3ccc(cc3Cl)C(O)C3NC(=O)C(NC(=O)C5NC(=O)C(CC(N)=O)NC(=O)C(NC(=O)C(N)CCCC[N+](C)(C)C)C(O)c5ccc(c(Cl)c5)O4)c4ccc(O)c(c4)-c4c(O)cc(O)cc4C(C(=O)O)NC3=O)OC(CO)C(O)C2O)CC(C)(NCc2ccc(-c3ccc(Cl)cc3)cc2)C1O.[Cl-] (stereo not drawn) [Compound 80]			2	2			
